Assay results taken from patent publication US20230348424A1, “HETEROCYCLIC COMPOUNDS AND METHODS OF USE” (Schrödinger, Inc., priority 2022, published 2023).

Legend:
[1] = biological target: SOS1:KRAS (G12C) interaction (Homo sapiens (Human), UniProt Q07889); test: SOS1 KRas(G12C) FRET Assay; type: binding; details: 0.5 nM His10-SOS1 (res. 564-1049), 2.5 nM GST-KRAS G12C (res. 1-169), 2 hrs at RT
Method in brief: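 GST-KRAS G12C (res. 1-169) at 2.5 nM and His10-SOS1 (res. 564-1049) at 0.5 nM, final, in PBS with 0.1% BSA, 5 mM MgCl2, 100 mM KF, 5 mM DTT and 0.5% DMSO. After 2 h at RT, FRET read at 665/615 nm and normalized to DMSO and no-SOS1 controls. IC50 by non-linear regression.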

[2] = biological target: human SOS1 (Homo sapiens (Human), UniProt Q07889); test: Surface Plasmon Resonance (SPR) SOS1 Binding Assay; details: biotinylated SOS1 (res. 564-1049), Biacore 8K, 25° C., kinetic or steady state fit, 1:1 binding; read-out: hSOS1 KD
Sequence of human SOS1 (Q07889 564-1049): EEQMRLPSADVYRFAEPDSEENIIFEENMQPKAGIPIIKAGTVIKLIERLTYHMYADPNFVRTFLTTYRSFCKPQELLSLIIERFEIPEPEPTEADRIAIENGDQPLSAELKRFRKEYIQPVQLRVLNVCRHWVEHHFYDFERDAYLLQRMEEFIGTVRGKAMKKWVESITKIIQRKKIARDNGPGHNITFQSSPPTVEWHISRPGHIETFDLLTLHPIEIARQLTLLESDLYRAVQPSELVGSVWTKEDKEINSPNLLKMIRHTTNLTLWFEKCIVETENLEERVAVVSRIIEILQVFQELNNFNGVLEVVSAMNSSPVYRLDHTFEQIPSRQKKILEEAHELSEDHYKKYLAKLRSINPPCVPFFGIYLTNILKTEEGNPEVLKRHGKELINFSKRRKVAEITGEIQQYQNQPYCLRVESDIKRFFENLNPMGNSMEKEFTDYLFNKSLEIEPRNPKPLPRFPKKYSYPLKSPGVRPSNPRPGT
Experimental: Binding to SOS1 was measured using a SPR assay with purified recombinant human SOS1 substrate (res. 564-1049 with N-terminal Avi tag; purified and biotinylated based on Hillig, et al., Proc Natl Acad Sci USA (2019); 116(7):2551-2560). SPR measurements were performed on a Biacore 8K SPR instrument (GE Healthcare, Sweden). Assays were performed at 25° C. using Series S SA sensor chips pre-coated with streptavidin (GE Healthcare, Cat. BR100531). Biotinylated SOS1 diluted in sample buffer (20 mM Tris HCI, 150 mM NaCl, 1 mM DTT, 0.05% TWEEN 20, 1 mM MgCh, pH 8.0) was captured to one flow cell of the chip to about 3,000 resonance units (RU) using sample buffer supplemented with 5% DMSO as a running buffer. Serial dilutions of the assayed compounds in the running buffer at 100, 50 or 0.5 µM were injected for 60 s at a flow rate of 30 µL/min and association phases were recorded. Dissociation of the samples was monitored for 600 s. Data processing was performed using Biacore Insight Software (Biacore, GE Healthcare). Sensorgrams recorded on a SA flow cell without captured protein were subtracted from sensorgrams recorded on the SOS1 surface. Blank injections of running buffer were used for double referencing and solvent correction was applied to all sample sensorgrams to correct for buffer mismatches. KDS were estimated using a kinetic or steady state, where applicable, fitting model describing a reversible equilibrium with 1:1 binding between SOS1 and the compound.

Sequence of SOS1:KRAS (G12C) interaction (Q07889 564-1049, stated change not applied): as the sequence (Q07889 564-1049) above

Row | IC50 [1] | Kd [2] | SMILES
1 | 25.6 nM | 7 nM | C[C@@H](NC(=O)c1cn([C@]2(C)CCOC2)c(=O)cc1NC1CCN(C)CC1)c1cccc(C(F)F)c1F (single isomer, unassigned) [Example 48]
2 | 11.3 nM | 7 nM | C[C@@H](NC(=O)c1cn(C2(C(F)F)CC2)c(=O)cc1N[C@@H]1CCN(C)C[C@@H]1F)c1cccc(C(F)F)c1F (single isomer, unassigned) [Example 63]
3 | 15 nM | 9 nM | C[C@@H](NC(=O)c1cn(C2(C(F)F)CC2)c(=O)cc1N[C@H]1CCN(C)C[C@H]1F)c1cccc(C(F)F)c1F (single isomer, unassigned) [Example 64]
4 | 50.4 nM | 48 nM | C[C@@H](NC(=O)c1cn(C2(C(F)F)CC2)c(=O)cc1N[C@@H]1CCN(C)C[C@H]1F)c1cccc(C(F)F)c1F (single isomer, unassigned) [Example 65]
5 | 48.6 nM | 34 nM | C[C@@H](NC(=O)c1cn(C2(C(F)F)CC2)c(=O)cc1N[C@H]1CCN(C)C[C@@H]1F)c1cccc(C(F)F)c1F (single isomer, unassigned) [Example 66]
6 | 17.4 nM | 13 nM | C[C@@H](NC(=O)c1cn(C2(C(F)F)CC2)c(=O)cc1N[C@@H]1CCNC[C@@H]1F)c1cccc(C(F)F)c1F (single isomer, unassigned) [Example 69]
7 | 12.7 nM | 4 nM | C[C@@H](NC(=O)c1cn(C2(C(F)F)CC2)c(=O)cc1N[C@H]1CCNC[C@H]1F)c1cccc(C(F)F)c1F (single isomer, unassigned) [Example 70]
8 | 9.7 nM | 3 nM | C[C@@H](NC(=O)c1cn([C@H]2C[C@@H]2C2CC2)c(=O)cc1N[C@H]1[C@@H]2CN(C)C[C@@H]21)c1cccc(C(F)F)c1F (single isomer, unassigned) [Example 72]
9 | 4.6 nM | 2 nM | C[C@@H](NC(=O)c1cn([C@@H]2C[C@H]2C2CC2)c(=O)cc1NC1CCN(C)CC1)c1cccc(C(F)F)c1F (single isomer, unassigned) [Example 74]
10 | 16.1 nM | 9 nM | C[C@@H](NC(=O)c1cn([C@@H]2CC2(F)F)c(=O)cc1N[C@H]1[C@@H]2CN(C)C[C@@H]21)c1cccc(C(F)F)c1F (single isomer, unassigned) [Example 92]
11 | 13.4 nM | 7 nM | C[C@@H](NC(=O)c1cn([C@@H]2CC2(C)C)c(=O)cc1N[C@H]1[C@@H]2CN(C)C[C@@H]21)c1cccc(C(F)F)c1F (single isomer, unassigned) [Example 94]
12 | 5.7 nM | 3 nM | C[C@@H](NC(=O)c1cn([C@@H]2CCC2(F)F)c(=O)cc1N[C@H]1[C@@H]2CN(C)C[C@@H]21)c1cccc(C(F)F)c1F (single isomer, unassigned) [Example 103]
13 | 45.4 nM | 24 nM | C[C@@H](NC(=O)c1cn([C@H]2CCC2(F)F)c(=O)cc1N[C@H]1[C@@H]2CN(C)C[C@@H]21)c1cccc(C(F)F)c1F (single isomer, unassigned) [Example 104]
14 | 3.6 nM | 2 nM | C[C@@H]1[C@@H](n2cc(C(=O)N[C@H](C)c3cccc(C(F)F)c3F)c(N[C@H]3[C@@H]4CN(C)C[C@@H]43)cc2=O)C1(F)F (single isomer, unassigned) [Example 109]
15 | 23.8 nM | 12 nM | C[C@@H](NC(=O)c1cn([C@H]2[C@H](C)C2(F)F)c(=O)cc1N[C@H]1[C@@H]2CN(C)C[C@@H]21)c1cccc(C(F)F)c1F (single isomer, unassigned) [Example 110]
16 | 26.2 nM | 17 nM | C[C@@H](NC(=O)c1cn([C@H]2C[C@@H]2C(F)(F)F)c(=O)cc1N[C@H]1[C@@H]2CN(C)C[C@@H]21)c1cccc(C(F)F)c1F (single isomer, unassigned) [Example 111]
17 | 13.6 nM | 6 nM | C[C@@H](NC(=O)c1cn([C@@H]2C[C@H]2C(F)(F)F)c(=O)cc1N[C@H]1[C@@H]2CN(C)C[C@@H]21)c1cccc(C(F)F)c1F (single isomer, unassigned) [Example 112]

Row | IC50 [1] | Kd [2] | SMILES
18 | 14.1 nM | 6 nM | C[C@@H](NC(=O)c1cn([C@H]2CC23CC3)c(=O)cc1N[C@H]1[C@@H]2CN(C)C[C@@H]21)c1cccc(C(F)F)c1F (single isomer, unassigned) [Example 115]
19 | 26.7 nM | 11 nM | C[C@@H](NC(=O)c1cn([C@@H]2CC23CC3)c(=O)cc1N[C@H]1[C@@H]2CN(C)C[C@@H]21)c1cccc(C(F)F)c1F (single isomer, unassigned) [Example 116]
20 | 8.5 nM | 6 nM | C[C@@H](NC(=O)c1cn([C@H]2CC23CCC3)c(=O)cc1N[C@H]1[C@@H]2CN(C)C[C@@H]21)c1cccc(C(F)F)c1F (single isomer, unassigned) [Example 117]
21 | 16.6 nM | 11 nM | C[C@@H](NC(=O)c1cn([C@@H]2CC23CCC3)c(=O)cc1N[C@H]1[C@@H]2CN(C)C[C@@H]21)c1cccc(C(F)F)c1F (single isomer, unassigned) [Example 118]
22 | 31.4 nM | 13 nM | C[C@@H](NC(=O)c1cn(C2(C(F)F)CC2)c(=O)cc1N[C@@H]1C[C@@H]2CN(C)C[C@@H]2C1)c1cccc(C(F)F)c1F (single isomer, unassigned) [Example 124]
23 | 9 nM | 5 nM | C[C@@H](NC(=O)c1cn(C23CC(C2)C3)c(=O)cc1N[C@@H]1[C@@H]2CC[C@H]1CN(C)C2)c1cccc(C(F)F)c1F (single isomer, unassigned) [Example 134]
24 | 52.1 nM | 31 nM | C[C@@H](NC(=O)c1cn(C23CC(C2)C3)c(=O)cc1N[C@H]1[C@@H]2CC[C@H]1CN(C)C2)c1cccc(C(F)F)c1F (single isomer, unassigned) [Example 135]
25 | 19.7 nM | 12 nM | C[C@@H](NC(=O)c1cn(C2(C(F)(F)F)CC2)c(=O)cc1N[C@@H]1[C@@H]2CC[C@H]1CN(C)C2)c1cccc(C(F)F)c1F (single isomer, unassigned) [Example 138]
26 | 49.7 nM | 25 nM | C[C@@H](NC(=O)c1cn(C2(C(F)(F)F)CC2)c(=O)cc1N[C@H]1[C@@H]2CC[C@H]1CN(C)C2)c1cccc(C(F)F)c1F (single isomer, unassigned) [Example 139]
27 | 15.2 nM | 7 nM | C[C@@H](NC(=O)c1cn(C2CC2)c(=O)cc1N[C@@H]1[C@@H]2CC[C@H]1CN(C)C2)c1cccc(C(F)F)c1F (single isomer, unassigned) [Example 140]
28 | 62.8 nM | 33 nM | C[C@@H](NC(=O)c1cn(C2CC2)c(=O)cc1N[C@H]1[C@@H]2CC[C@H]1CN(C)C2)c1cccc(C(F)F)c1F (single isomer, unassigned) [Example 141]
29 | 4 nM | 3 nM | C[C@@H](NC(=O)c1cn([C@H]2CCC2(F)F)c(=O)cc1N[C@H]1[C@@H]2CN(C)C[C@@H]21)c1cccc(C(F)(F)F)c1F (single isomer, unassigned) [Example 144]
30 | 35.2 nM | 37 nM | C[C@@H](NC(=O)c1cn([C@@H]2CCC2(F)F)c(=O)cc1N[C@H]1[C@@H]2CN(C)C[C@@H]21)c1cccc(C(F)(F)F)c1F (single isomer, unassigned) [Example 145]
31 | 7.4 nM | 6 nM | C[C@@H](NC(=O)c1cn([C@H]2CCC2(F)F)c(=O)cc1N[C@H]1[C@@H]2CN(C)C[C@@H]21)c1cccc(C(C)(F)F)c1F (single isomer, unassigned) [Example 148]
32 | 61.6 nM | 56 nM | C[C@@H](NC(=O)c1cn([C@@H]2CCC2(F)F)c(=O)cc1N[C@H]1[C@@H]2CN(C)C[C@@H]21)c1cccc(C(C)(F)F)c1F (single isomer, unassigned) [Example 149]
33 | 47.3 nM | 12 nM | C[C@@H](NC(=O)c1cn([C@@]2(C)CCOC2)c(=O)cc1N[C@H]1[C@@H]2CN(C)C[C@@H]21)c1cccc(C(F)F)c1F (single isomer, unassigned) [Example 151]
34 | 59.6 nM | 27 nM | Cc1c([C@@H](C)NC(=O)c2cn(C3CCOCC3)c(=O)cc2NCCN(C)C)cccc1C(F)(F)F [Example 2, (R)-4-((2-(dimethylamino)ethyl)amino)-N-(1-(2-methyl-3-(trifluoromethyl)phenyl)ethyl)-6-oxo-1-(tetrahydro-2H-pyran-4-yl)-1,6-dihydropyridine-3-carboxamide]
